Legend:
WT-HepG2 cells = experiment: Propranolol metabolite formation in WT-HepG2 cells (HPLC); format: in vitro ADME, human; details: 1 μM propranolol, 360 min
Text: Figure 5 Major metabolites of propranolol formed by the CYPs–UGT1A1 KI-HepG2 cells. […] Data are means ± SD of three technical replicates. N.D., not detected.

[1] = test system: CYPs–UGT1A1 KI-HepG2 cells; experiment: Propranolol metabolite formation in CYPs–UGT1A1 KI-HepG2 cells (HPLC); format: in vitro ADME, human; details: 1 μM propranolol, 360 min
[2] = test system: CYPs–UGT1A1 KI-HepG2 cells
Description: The HepG2 cells were seeded in 96-well plates at 1.0 × 10^4 cells/well. […] After 24 h, to examine the cell viability, we performed a WST-8 (2-(2-methoxy-4-nitrophenyl)-3-(4-nitrophenyl)-5-(2,4-disulfophenyl)-2H-tetrazolium, monosodium salt) assay by using Cell Count Reagent SF according to the manufacturer’s instructions. The cell viability was calculated as the percentage of that in the cells treated with a vehicle only.
After 24 h, cell viability was examined by WST-8 assay. The cell viability was calculated as a percentage of the number of cells after treatment with a solvent only. The results shown are means ± SD of three technical replicates.

CYP2C9 = CYP2C9 (Homo sapiens, UniProt P11712)
CYP2C9, sequence (P11712 whole entry): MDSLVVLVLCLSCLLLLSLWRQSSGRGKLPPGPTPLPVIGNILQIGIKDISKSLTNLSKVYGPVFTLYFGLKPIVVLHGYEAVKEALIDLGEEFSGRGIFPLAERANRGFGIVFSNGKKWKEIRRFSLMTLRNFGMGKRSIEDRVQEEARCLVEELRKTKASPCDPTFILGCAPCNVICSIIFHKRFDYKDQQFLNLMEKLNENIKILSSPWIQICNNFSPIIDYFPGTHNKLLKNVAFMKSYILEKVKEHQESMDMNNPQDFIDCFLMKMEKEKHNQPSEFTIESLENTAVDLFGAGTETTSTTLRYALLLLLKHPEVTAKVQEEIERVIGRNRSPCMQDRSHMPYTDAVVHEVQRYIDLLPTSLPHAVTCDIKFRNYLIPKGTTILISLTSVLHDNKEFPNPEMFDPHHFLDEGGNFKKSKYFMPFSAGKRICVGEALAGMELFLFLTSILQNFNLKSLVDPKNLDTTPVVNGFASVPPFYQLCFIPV
Description: (§1) The cells were cultured on 48-well plates, then washed with pH 7.4 HBSS containing 10 mM HEPES and 25 mM glucose. […] After preincubation, HBSS containing 10 μM phenacetin, 10 μM diclofenac, 50 μM S-mephenytoin, 1 μM bufuralol, 10 μM midazolam, 10 μM 7′-hydroxy coumarin, or 1 μM propranolol was added, and the cells were incubated at 37 ℃ for 360 min. […] The samples were collected from the supernatant, then immediately mixed with the same volume of acetonitrile. The mixed solutions were centrifuged for 5 min at 15,000× g. […] HPLC analysis was performed using a LO-20AD SPD + RF (DGU-20A, LC-20AD, RF-20A xs, SIL-20AC, CBM-20A, SPD-20A, CTO-20AC; Shimadzu). The concentrations of each metabolite were calculated according to the respective standard followed by normalization to the protein content per well.
(§2) A value of p < 0.05 was considered statistically significant. Using the SigmaPlot v.
(§3) The quantity of metabolites (4′-hydroxy diclofenac, 1′-hydroxy bufuralol, and 1′-hydroxy midazolam; these compounds are metabolites for CYP2C9, 2D6, and 3A4, respectively) were measured by HPLC. Data represent the means ± SD (n = 3, technical replicates). Statistical analyses were performed using the unpaired two-tailed Student’s t test (** p < 0.01). […]

CYP2D6 = target: T1, CYP2D6 (Homo sapiens, UniProt P10635); experiment: CYP2D6 inhibition in CYPs–UGT1A1 KI-HepG2 cells (1′-hydroxy bufuralol formation, HPLC); format: in vitro ADME
T1 construct: P2A self-cleaving peptide (upstream linker from CYP2C9) (N); T2A self-cleaving peptide (linker to HygR) (C); expressed in transfected cells
T1 sequence (P10635 whole entry): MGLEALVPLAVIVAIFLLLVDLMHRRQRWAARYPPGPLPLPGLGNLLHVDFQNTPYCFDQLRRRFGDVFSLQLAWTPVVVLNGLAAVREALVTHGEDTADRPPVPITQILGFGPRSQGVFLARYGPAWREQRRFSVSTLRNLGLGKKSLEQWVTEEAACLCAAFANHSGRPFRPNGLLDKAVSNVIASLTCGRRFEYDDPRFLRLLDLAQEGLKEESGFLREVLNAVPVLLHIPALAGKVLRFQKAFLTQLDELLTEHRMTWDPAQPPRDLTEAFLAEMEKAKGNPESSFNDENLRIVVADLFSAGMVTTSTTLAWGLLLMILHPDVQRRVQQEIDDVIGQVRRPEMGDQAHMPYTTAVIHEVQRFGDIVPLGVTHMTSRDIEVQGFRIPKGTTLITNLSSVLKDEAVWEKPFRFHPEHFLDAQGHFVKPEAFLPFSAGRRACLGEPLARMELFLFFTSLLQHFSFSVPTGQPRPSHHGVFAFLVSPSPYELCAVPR
Description: as §1, §2, §3

Row | Compound | Metabolite of propranolol formed (detection by HPLC) (WT-HepG2 cells) | Cell viability of CYPs–UGT1A1 KI-HepG2 cells compared with WT-HepG2 cells [2] | also measured
1 | NCC(O)COc1cccc2ccccc12 (centres unmarked) [desisopropylpropranolol] | undetectable |  | Metabolite of propranolol formed (detection by HPLC) [1]: present at detectable levels
2 | CC(C)NCC(O)COc1cccc2c(O)cccc12 (centres unmarked) [5′-hydroxy propranolol] | undetectable |  | 
3 | CCc1oc2ccccc2c1C(=O)c1cc(Br)c(O)c(Br)c1 [benzbromarone] |  | lower | 
4 | CC(=O)Nc1ccc(O)cc1 [acetaminophen] |  | lower | 
5 | CC(C)NCC(O)COc1ccc(O)c2ccccc12 (centres unmarked) [4′-hydroxy propranolol] | undetectable |  | 
6 | Nc1ccc(S(=O)(=O)Nc2ccnn2-c2ccccc2)cc1 [sulfaphenazole] |  |  | CYP2C9 activity in the presence of the inhibitor (CYP2C9): significantly decreased
7 | Cc1c(C)c2c(c(C)c1O)CCC(C)(COc1ccc(CC3SC(=O)NC3=O)cc1)O2 (centres unmarked) [troglitazone] |  | lower | 
8 | CN(C/C=C/C#CC(C)(C)C)Cc1cccc2ccccc12 [terbinafine] |  |  | CYP2D6 activity in the presence of the inhibitor (CYP2D6; 10 μM inhibitor, 1 μM bufuralol, p < 0.01): significantly decreased; IC50 (CYP2D6; substrate 1 μM bufuralol, inhibitor 0.03-10 μM, 30 min preincubation, 360 min incubation): 63.5 nM
9 | CN(C)CCCN1c2ccccc2CCc2ccccc21 [imipramine] |  | lower | 

Source: PMC9140068, “Generation of HepG2 Cells with High Expression of Multiple Drug-Metabolizing Enzymes for Drug Discovery Research Using a PITCh System” (Cells, 2022)
